Assay results published in patent publication US9061984B2 (University of Louisville Research Foundation, Inc., priority 2008, dated 2015).
Converted amounts (≈) assume the structure as drawn. Where two headings read alike, the source gives them in different places.

Key:
3T3 cells = assay: Cell growth inhibition bioassay (sulforhodamine B); type: cell-based, mouse; settings: 48 h, SRB; for GI50: Mus musculus, NIH3T3, read-out: GI50 in indicated cell line: 3T3
How it was run: (§1)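 Cells were exposed to compound alongside matched solvent controls, then stained with sulforhodamine B. Percent growth inhibition was calculated from dye absorbance against the control.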

PC3 cells = assay: Cell growth inhibition bioassay (sulforhodamine B); type: cell-based; settings: Homo sapiens, PC-3; 48 h, SRB; read-out: GI50 in indicated cell line: PC3
Experimental: The cytotoxicity of compounds was assayed as follows. […] Appropriate solvent controls were tested for comparison. The percent inhibition of cell growth relative to the control was evaluated colorimetrically using a sulforhodamine B dye by comparison to the control. The calorimetric procedure followed that published in Skehan et al., J. Nat. Cancer Inst., […], pp. 1107-1112 (1990) and Boyd & Paull, Drug Dev. Res., Vol. 34, pp. 91-109 (1995). […] The cell lines are: 3T3 cells are BALB/3T3 clone A31 embryonic mouse fibroblast cells; H460 cells are human large cell lung cancer cells; DU145 cells are human prostate carcinoma cells; MCF-7 cells are human breast adenocarcinoma cells; M-14 cells are human melanoma cells; HT-29 cells are human colon adenocarcinoma cells; PC3 cells are human prostate adenocarcinoma cells; K562 cells are human chronic myelogenous leukemia cells; and VERO cells are African Green Monkey kidney epithelial cells.

K562 cells = assay: Cell growth inhibition bioassay (sulforhodamine B); type: cell-based, human; settings: 48 h, SRB; for GI50: Homo sapiens, K562, read-out: GI50 in indicated cell line: K562
How it was run: as §1

MCF-7 cells = assay: Cell growth inhibition bioassay (sulforhodamine B); type: cell-based, human; settings: 48 h, SRB; for GI50: Homo sapiens, MCF7, read-out: GI50 in indicated cell line: MCF-7
How it was run: (§2)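 Human cancer cells (MCF-7 breast, DU145 and PC3 prostate, H460 large cell lung) were treated with compounds. Growth relative to solvent control was quantified by SRB protein stain.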

HT-29 cells = assay: Cell growth inhibition bioassay (sulforhodamine B); type: cell-based, human; settings: 48 h, SRB; for GI50: Homo sapiens, HT-29, read-out: GI50 in indicated cell line: HT-29
How it was run: as §1

H460 cells = assay: Cell growth inhibition bioassay (sulforhodamine B); type: cell-based, human; settings: 48 h, SRB; for GI50: Homo sapiens, NCI-H460, read-out: GI50 in indicated cell line: H460
How it was run: as §1

M-14 cells = assay: Cell growth inhibition bioassay (sulforhodamine B); type: cell-based, human; settings: 48 h, SRB; for GI50: Homo sapiens, M14, read-out: GI50 in indicated cell line: M-14
How it was run: as §1

DU145 cells = assay: Cell growth inhibition bioassay (sulforhodamine B); type: cell-based, human; settings: 48 h, SRB; for GI50: Homo sapiens, DU-145, read-out: GI50 in indicated cell line: DU145
How it was run: as §2

[1] = tested on: Trypanosoma cruzi (Tulahuen C4); assay: In vitro anti-T. cruzi activity (β-galactosidase CPRG colorimetric assay in VERO monolayer); type: cell-based; settings: for inhibition at 10 µg/mL / IC50: Trypanosoma cruzi, TULAHUEN, Vero; for inhibition at 10 µg/mL: 120 h, read-out: T. cruzi Inhib. (%); for Selectivity Index Lab B: IC50, VERO/IC50, T. cruzi
M. tuberculosis H37Rv [2] = assay: Conventional aerobic (MABA) culture assay, luminescence MIC; type: cell-based, Mycobacterium tuberculosis; settings: aerobic, 7 days, H37Rv; for MIC: Mycobacterium tuberculosis, 168 h
[3] = tested on: non-replicating persistence Mycobacterium tuberculosis (NRP-TB); assay: Low oxygen recovery assay (LORA); type: cell-based; settings: anaerobic 10 days, 28 hour recovery; value in brackets
VERO cell = assay: Cytotoxicity VERO cell (Table 6); settings: Table 6
peritoneal macrophages = assay: Toxicity to peritoneal macrophages (Trypan Blue count); type: cell-based, BALB/C mouse
VERO cells [4] = assay: Cell growth inhibition bioassay (sulforhodamine B); type: cell-based, African Green Monkey; settings: 48 h, SRB; for GI50: Chlorocebus sabaeus, Vero, read-out: GI50 in indicated cell line: VERO
How it was run: as §1

VERO cells [5] = assay: Cytotoxicity on VERO cells (MTT), anti-T. cruzi study; settings: Lab B
[6] = tested on: axenic amastigotes of L. amazonensis (strain MHOM/BR/76/LTB-012); settings: Table 8b
L. braziliensis PER006 = assay: Activity against macrophages infected with Leishmania amastigotes; settings: Leishmania braziliensis, Macrophage, read-out: IC50 L. braziliensis PER006
M. tuberculosis MDR = assay: Anti-tuberculosis bioassay (tetrazolium microplate MIC); type: cell-based; settings: Mycobacterium tuberculosis, read-out: Mycobacterium MIC MDR
L. amazonensis = settings: intralesional, compounds 5 mg/kg/day, Glucantime 33 mg Sb(v)/kg/day; for Mean lesion wt (mg) (±SD): BALB/c mice n=10; for % Variation of lesion wt / % reduction of parasite burden in the lesion: vs control
[7] = Toxicity to peritoneal macrophages (Trypan Blue count); type: cell-based, BALB/C mouse; settings: BALB/C, mouse
VERO cells [8] = assay: VERO cells IC50 (Table 5); type: cell-based, African green monkey; settings: Chlorocebus sabaeus
[9] = Cytotoxicity on VERO cells (MTT), anti-T. cruzi study; settings: African green monkey, VERO cells
L. peruviana LCA08 = assay: Activity against macrophages infected with Leishmania amastigotes; settings: Leishmania peruviana, Macrophage, read-out: IC50 L. peruviana LCA08
[10] = tested on: axenic amastigotes of L. amazonensis (strain MHOM/BR/76/LTB-012); assay: microbe, parasite or virus in culture; settings: Leishmania amazonensis
M. tuberculosis H37Rv [11] = assay: Anti-tuberculosis bioassay (tetrazolium microplate MIC); type: cell-based; settings: Mycobacterium tuberculosis, read-out: Mycobacterium MIC H37Rv, Table 5
[12] = 10 μg/mL of each compound, 120 hours
[13] = IC50 Cytotoxicity Against Macrophages
[14] = IC50 - VERO Cytotoxicity, Table 2
[15] = read-out: IC50 Cytotoxicity Against Amastigotes
[16] = Lab B, read-out: T. cruzi IC50 Lab B
[17] = Table 2, read-out: IC50 - T. cruzi

Row | SMILES | GI50 (3T3 cells) | GI50 (K562 cells) | GI50 (MCF-7 cells) | GI50 (HT-29 cells) | GI50 (H460 cells) | GI50 (M-14 cells) | GI50 (DU145 cells) | inhibition at 10 µg/mL [1, 12] | MIC (M. tuberculosis H37Rv [2]) | MIC (M. tuberculosis MDR) | IC50 at 48 h ([7]; Cytotoxicity Macrophages IC50) | IC50 at 48 h [7, 13] | IC50 (VERO cells [8]) | GI50 (VERO cells [4]) | IC50 ([9]; Cytotoxicity VERO Lab B, Lab B) | IC50 [9, 14] | Selectivity Index [6] | IC50 [10, 15] | IC50 ([10]; read-out: L. amazonensis IC50) | Selectivity Index Lab B ([1]; Lab B) | also measured
1 | COc1ccc(CCC(=O)c2c(O)cc(O)cc2OC)cc1 [Compound I-07, 1-(2,4-Dihydroxy-6-methoxyphenyl)-3-(4-methoxyphenyl)-1-propanone] | > 206 µM | 22.8 µM | 65.5 µM | > 206 µM | 128 µM | 109 µM | > 206 µM | 20.5% |  |  |  |  |  |  |  |  |  |  |  |  | GI50 (PC3 cells): 59.9 µM; T. cruzi Inhib. (%) [1, 12]: 27.74%; IC50 ([1]; Table 3, read-out: IC50 T. cruzi): > 25 µM; melting point: 166 °C
2 | FC(F)(F)c1ccccc1C=NNc1ncnc2sc3c(c12)CCCC3 [II-25] |  |  |  |  |  |  |  |  |  |  |  |  |  |  |  |  |  |  |  |  | GI50 in indicated cell line: 3T3 (3T3 cells): 6.0 µg/mL (≈ 15.9 µM); MIC MABA (M. tuberculosis H37Rv [2]): 5.9 µg/mL (≈ 15.7 µM); MIC LORA [3]: 5.8 µg/mL (≈ 15.4 µM); Cytotoxicity VERO cell (VERO cell): 7.6 µg/mL; IC50 (peritoneal macrophages): 1.2 µM; GI50 in indicated cell line: K562 (K562 cells): 0.6 µg/mL (≈ 1.59 µM); GI50 in indicated cell line: MCF-7 (MCF-7 cells): 1.8 µg/mL (≈ 4.78 µM); GI50 in indicated cell line: HT-29 (HT-29 cells): 1.7 µg/mL (≈ 4.52 µM); GI50 in indicated cell line: H460 (H460 cells): 2.0 µg/mL (≈ 5.31 µM); GI50 in indicated cell line: M-14 (M-14 cells): 2.5 µg/mL (≈ 6.64 µM); GI50 in indicated cell line: DU145 (DU145 cells): 1.3 µg/mL (≈ 3.45 µM); GI50 in indicated cell line: VERO (VERO cells [4]): 1.7 µg/mL (≈ 4.52 µM); Cytotoxicity VERO Lab B (VERO cells [5]): 3.0; IC50 ([6]; read-out: L. amazonensis IC50): 0.4 µM; T. cruzi IC50 Lab A ([1]; Lab A): 0.5 µg/mL; T. cruzi IC50 Lab B ([1]; Lab B): 5.2 µg/mL
3 | Clc1ccc(/C=N\Nc2ncnc3sc4c(c23)CCCC4)cc1 [II-28] | 6.4 µg/mL | 2.3 µg/mL | 2.9 µg/mL | 5.2 µg/mL | 4.4 µg/mL | > 62.5 µg/mL | 5 µg/mL | 74.7% | > 100 µg/mL | 6.25 µg/mL (≈ 18.2 µM) | 48.8 µM | > 10 µM | > 80 µg/mL | 3 µg/mL (≈ 8.75 µM) | 7 µg/mL (≈ 20.4 µM) | 27 µg/mL (≈ 78.8 µM) | 85.2 | 3.3 µM | 0.6 µM | 1.6 | IC50 (L. braziliensis PER006): 5.9 µg/mL (≈ 17.2 µM); Mean lesion size (mm) (L. amazonensis; after 4 weeks treatment): 3.6 mm; Mean parasite quantification (per 10^6) in lesion per mg (±SD) (L. amazonensis; after 4 weeks treatment): 0.92 (±0.32) amastigotes (×10^6)/mg; Mean lesion wt (mg) (±SD) (L. amazonensis; after 4 weeks treatment): 60.4 (±31.3) mg; % Variation of lesion wt (L. amazonensis; after 4 weeks treatment): 0%; % reduction of parasite burden in the lesion (L. amazonensis; after 4 weeks treatment): 46%; Mean lesion size (mm) (L. amazonensis; after 7 weeks treatment): 5.2 mm; Mean parasite quantification (per 10^6) in lesion per mg (±SD) (L. amazonensis; after 7 weeks treatment): 1.26 (±0.02) amastigotes (×10^6)/mg; Mean lesion wt (mg) (±SD) (L. amazonensis; after 7 weeks treatment): 169.1 (±15.3) mg; % Variation of lesion wt (L. amazonensis; after 7 weeks treatment): −90%; % reduction of parasite burden in the lesion (L. amazonensis; after 7 weeks treatment): 25%; IC50 (L. peruviana LCA08): > 10 µg/mL; IC50 ([1]; Lab A, read-out: T. cruzi IC50 Lab A): 1.6 µg/mL; IC50 [1, 16]: 4.5 µg/mL; IC50 [1, 17]: 6.5 µg/mL; MIC (M. tuberculosis H37Rv [11]): 12.5 µg/mL (≈ 36.5 µM)
4 | Fc1ccccc1/C=N\Nc1ncnc2sc3c(c12)CCCC3 [II-27] | > 93.8 µg/mL | 26.5 µg/mL | 24.5 µg/mL | > 93.8 µg/mL | > 93.8 µg/mL | > 93.8 µg/mL | > 93.8 µg/mL | 78.9% | > 100 µg/mL | 3.12 µg/mL (≈ 9.56 µM) | 3.3 µM | > 10 µM | 27.7 µg/mL (≈ 84.9 µM) | > 93.8 µg/mL | 6 µg/mL (≈ 18.4 µM) | 7 µg/mL (≈ 21.4 µM) | 3.1 | 3.2 µM | 1.1 µM | 1.7 | IC50 [1, 16]: 3.5 µg/mL; IC50 [1, 17]: 4.37 µg/mL; MIC (M. tuberculosis H37Rv [11]): 3.12 µg/mL (≈ 9.56 µM)
